From publication PMC12557367, ““Precision on Two Wheels”–Structural Refinement of ^64Cu- and ^68Ga-Labeled Bicyclic Peptides Targeting Nectin‑4 for Improved Tumor Imaging: From Preclinical Development to First-in-Human Application” (Journal of Medicinal Chemistry, 2025)
Like-named read-outs stand apart in the source and are kept apart here. Numbered stars: 1 amine (or outer) side, 2 acyl side, 3 side chain; on linkers, the order of the positions; unused ones are H or OH. Bridge positions count the residues as written; N and C are the ends. Square brackets hold non-standard residues; d marks the D form. Peptide text beside a SMILES is read from it. * marks the point of attachment. DOTA = O=C(O)CN1CCN(CC(=O)O)CCN(CC(=O)*)CCN(CC(=O)O)CC1; TATA = O=C(CC[*:1])N1CN(C(=O)CC[*:2])CN(C(=O)CC[*:3])C1; X1 = O=C(O)CN1CCN(CC(=O)O)CCN([C@H](CCC(=O)*)C(=O)O)CC1; 1Nal = N[C@@H](Cc1cccc2ccccc12)C(=O)O; 2Nal = N[C@@H](Cc1ccc2ccccc2c1)C(=O)O; Hyp = O=C(O)[C@@H]1C[C@@H](O)CN1; hArg = N=C(N)NCCCC[C@H](N)C(=O)O; Met(O) = CS(=O)CC[C@H](N)C(=O)O; SeMet = C[Se]CC[C@H](N)C(=O)O; Nle = CCCC[C@H](N)C(=O)O

How the values were obtained:
[1] = Oxidation stability in H2O2 (radio-HPLC)
Protocol: To avoid a too rapid degradation of radiolabeled peptides, a low H2O2 concentration of 0.0012% was chosen. […] In this context, there are three further thioether functionalities in each peptide due to the cyclization of the Cys residues with TATA. In Figure , the curves for the time-dependent degradation of the intact radioligands are depicted, from which the respective half-lives were calculated.
The stability toward oxidizing conditions was assessed with H2O2. For this purpose, the radioligands (2 nmol, 48 μL of labeling mixture) were treated with H2O2 (2 μL of 0.03%, final concentration of 0.0012%) at ambient temperature. At distinct time points (3, 5, and 7 h), an aliquot of 2 μL was withdrawn and diluted with 48 μL of a mixture named “Supersol,” which consists of 20% ethanol, 0.5% Triton X-100, 5 mM EDTA, 0.5 mM o-phenanthroline, and 0.1% saponin. […] The resulting solutions were analyzed by radio-HPLC (same system as that used for analyzing the ^64Cu-labelings).

[2] = n-Octanol/PBS distribution coefficient (logD 7.4); format: physicochemical
Protocol: The determination of logD 7.4 was performed in triplicate. A sample of the ^64Cu/^68Ga-labeled compound containing ≈1 MBq in a volume of 1 μL was added to a 1.5 mL Eppendorf tube containing 400 μL of PBS (pH 7.4) and 400 μL of n-Octanol (the phases were presaturated with each other). The tube was vortexed vigorously for 1 min and then centrifuged at 16,100g for 4 min to separate the phases. For sampling from the aqueous phase, the pipette tip was discharged while passing through the octanol layer. Then, the sample was taken within the aqueous phase. Any residual liquid was carefully removed by moving the tip along the inner wall of an Eppendorf tube. The radioactivity in a defined volume of each layer was measured (ISOMED 2100). The distribution coefficient was expressed as the logarithm of the ratio of counts per minute (cpm) measured in the n-Octanol phase to the cpm measured in the PBS phase.

[3] = Small animal PET/CT imaging; design: species or system mice; settings: mouse, in vivo
Protocol: (§1) All animal experiments were performed following the protocols evaluated and approved by the Landesdirektion Sachsen, Referat 25 – Veterinärwesen, Lebensmittelüberwachung and Pharmazie (09105 Chemnitz, Germany, ethics approval number: 25-5131/562/52). HT-1376- and 5637-derived tumor xenograft models were established in NMRI nude mice (Rj: NMRI-Foxn1nu/nu, Charles River Laboratories, Sulzfeld, Germany) by subcutaneous injection of 5 × 10^6 cells in 100 μL of PBS containing 50% (v/v) Matrigel (Corning Life Sciences, Amsterdam, The Netherlands).
(§2) When the tumor volume reached 200 mm^3, PET experiments with radiotracers were performed. Radiolabeling of the ligands was performed as described previously with an apparent molar activity of 25 MBq/nmol. The radioligand stock solution (pH 6.5 – 7.5) was diluted in 0.9% NaCl, and 200 μL containing ∼9 MBq ([…]) was injected per mouse intravenously into a lateral tail vein. For blocking of target-specific radioligand binding, 75 nmol of blocking substance (1d) was administered simultaneously with the radioligand. Coincidences were recorded continuously in a 2 h PET-scan starting with the injection. Additionally, a CT scan was performed for anatomical referencing and attenuation correction. PET/CT imaging, reconstruction, and tissue delineation were carried out as described previously.

[4] = system: HT-1376-derived tumor xenograft model; assay: Small animal PET/CT imaging; design: species or system mice; settings: mouse, in vivo
Protocol: as §1, §2

[5] = target: T1, recombinant human nectin-4 (Homo sapiens, UniProt Q96NY8); assay: FA-based competitive binding assay with probe 1a; settings: for Hill coefficient n: competitive binding curve, variable slope
T1 construct: close to the value determined for the complete extracellular domain of nectin-4 (0.94 nM); purchased R&D Systems 2659-N4
T1 sequence (Q96NY8 32-349 limits assumed): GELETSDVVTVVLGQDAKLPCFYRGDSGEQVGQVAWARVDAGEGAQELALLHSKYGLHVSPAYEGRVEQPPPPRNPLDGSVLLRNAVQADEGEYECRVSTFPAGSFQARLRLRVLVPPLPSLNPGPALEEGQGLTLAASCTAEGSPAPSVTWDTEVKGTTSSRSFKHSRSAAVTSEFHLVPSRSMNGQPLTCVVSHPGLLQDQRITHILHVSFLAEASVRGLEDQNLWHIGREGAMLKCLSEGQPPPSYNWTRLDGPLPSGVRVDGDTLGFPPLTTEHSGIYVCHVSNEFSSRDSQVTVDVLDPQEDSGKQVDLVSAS
Protocol: For the competitive binding assay, a constant concentration of probe 1a (1 nM) and of nectin-4 (20 nM) was used, and the concentration of the competitors was varied over at least 3 orders of magnitude. […] Analysis of the curves by nonlinear regression according to dose–response inhibition with variable slope, as implemented in GraphPad Prism (see Experimental section), provided the IC50 value for displacing the probe from nectin-4.
All measurements were conducted at 37 °C over 1200 s (interval of 37 s) using a Cytation 5 multimode microplate reader (BioTek Instruments, Software Gen 5) and black 96-well microplates (BRANDplates with F-bottom wells). Experiments were conducted at an excitation wavelength of 540 nm and an emission wavelength of 620 nm. The FA (r) was calculated by Gen 5 software from the measured parallel and perpendicular fluorescence intensities (I ∥ and I ⊥, respectively) according to eq using a G factor of 0.87 (preset value). r=I∥−G×I⊥/I∥+2G×I⊥ 1
All further data analyses were conducted with GraphPad Prism (version 10.4.1, GraphPad Software, San Diego, CA, USA). The assay mixture (100 μL) contained an aqueous solution (99 μL) and DMSO (1%, v/v, 1 μL).
For the competitive binding assay, fixed concentrations of probe 1a (1 nM) and recombinant human nectin-4 (20 nM) and 10 concentrations of nonlabeled peptide (e.g., […] prepared as serial 1:1 dilution) were used (two separate experiments, each performed in duplicate). The corresponding stock solutions of 1a (2.5 nM) and nectin-4 (50 nM) were prepared in HEPES buffer, while the stock solutions of the nonlabeled peptides were prepared in 5% DMSO/HEPES buffer. nectin-4 (40 μL) and 1a (40 μL) were added to the wells, and the competition was started by the addition of the nonlabeled peptides (20 μL). The FA values were averaged over the time period of 1200 s, and plots of FA = f([peptide]) were analyzed by nonlinear regression according to the model “[inhibitor] vs. response – Variable slope (four parameters)” as implemented in GraphPad Prism. […] Therefore, the lower FA plateau was constrained to the FA value of probe 1a in the absence of nectin-4 and the competitor, which was recorded in each experiment.

[6] = target: T2, immobilized human nectin-4 (Homo sapiens, UniProt Q96NY8); assay: SPR analysis of binding kinetics; settings: ±SEM
T2 construct: close to the value determined for the complete extracellular domain of nectin-4 (0.94 nM); purchased R&D Systems 2659-N4
T2 sequence (Q96NY8 32-349 limits assumed): T1 sequence (Q96NY8 32-349 limits assumed)
Protocol: For this purpose, recombinant human nectin-4 was covalently immobilized on a CM5 sensor chip by EDC/NHS coupling. For analyses, the buffer composition (HBS-P+, pH 7.4) was similar to that of the FA assay; however, DMSO was completely omitted (1% DMSO for the FA assay).
The SPR analyses were carried out on a Biacore T200 (GE Healthcare, Chicago, IL, USA) at 25 °C using CM5 sensor chips (Cytiva) and HBS-P+ as running buffer (Cytiva) at a flow of 30 μL/min unless otherwise specified and a data collection rate of 10 Hz. All flow cells (FC) were normalized, and functionalization was performed using an amine coupling Kit (Cytiva). […] Binding analyses were performed by a single-cycle kinetic on both FC. Two start-up cycles were performed at the beginning of each experimental set, comprising the injection of bicyclic peptide (50 nM) and analysis on both FC, followed by regeneration. Binding analysis for the bicyclic peptides was performed by consecutive injection of five increasing concentrations (120 s contact time for each concentration), followed by 600 s dissociation time and analysis on both FC. The regeneration was performed by sequential injection of 10 mM NaOAc (pH 5.5) for 60 s, washing the needle using HBS-P+, injection of 10 mM NaOAc (pH 5.5) for 60 s, 600 s waiting, four injections of HBS-P+ (60 s), and a final 600 s waiting for stabilization. Blank runs using only buffer (HBS-P+) instead of the sample were carried out to obtain double-referenced chromatograms. Binding analyses were performed unless otherwise stated in a concentration range between 0.16–100 nM and 1.6–1000 nM (5-fold dilution series) and analyzed in triplicate. The data were analyzed using the Biacore Evaluation software 3.2.1. […] Data were fitted to a 1:1 binding model.

HT-1376 cells = assay: Saturation binding assay on intact cells; format: cell-based, human; settings: ^68Ga-labeled ligand, intact HT-1376 cells, ±SD
Protocol: For the saturation binding assay, total and nonspecific binding were determined as described above using 10 different radioligand concentrations ([…]) prepared by serial 1:1 dilution. Plots of “total binding” = f(radioligand) were analyzed by nonlinear regressions using the model of “one site-total, accounting for ligand depletion” as implemented in GraphPad Prism, and Plots of “nonspecific binding” = f(radioligand) were analyzed by linear regressions.

| half-life [1] [min] | logD ([2]; pH 7.4, logD 7.4) | half-life ([3]; Blood half life fast [min]) [min] | half-life ([3]; Blood half life slow [min]) [min] | fold lower binding affinity compared to 1e ([5]; FA K d ratio) [fold] | Hill coefficient n [5] | Structure (SMILES) | also measured |
| --- | --- | --- | --- | --- | --- | --- | --- |
|  |  |  |  |  |  | C[Se]CC[C@@H]1NC(=O)[C@@H]2CSCCC(=O)N3CN(CN(C3)C(=O)CCSC[C@H](NC(=O)CC[C@H](C(=O)O)N3CCN(CC(=O)O)CCN(CC(=O)O)CC3)C(=O)N3CCC[C@H]3C(=O)N[C@@H](Cc3cccc4ccccc34)C(=O)N[C@H](CC(=O)O)C(=O)N2)C(=O)CCSC[C@@H](C(N)=O)NC(=O)[C@H](Cc2c[nH]c3ccccc23)NC(=O)[C@@H]2C[C@@H](O)CN2C(=O)[C@@H]2CCCN2C(=O)[C@H]([C@@H](C)O)NC(=O)[C@H](CO)NC(=O)[C@H](Cc2c[nH]c3ccccc23)NC(=O)[C@H](CC(=O)O)NC(=O)[C@H](CCCCNC(=N)N)NC1=O [[^64Cu]Cu-5, metal not drawn] (X1-CP[1Nal][dD]C[SeMet][hArg]DWSTP[Hyp]WC-NH2; linker 1-5-15 via TATA) | half-life ([1]; half-life of intact radiolabeled peptide (T1/2), 0.0012% H2O2, 25 °C, one-phase decay): 22.8 min; half-life ([1]; half-life of intact radiolabeled peptide, 0.0012% H2O2): 23 min; logD ([2]; ^64Cu-labeled ligand, n-octanol/PBS pH 7.4, ±SD, read-out: logD 7.4): -2.37 |
| 1040 | -2.53 | 1.24 ± 0.15 | 38.2 ± 2.68 |  |  | CCCC[C@@H]1NC(=O)[C@@H]2CSCCC(=O)N3CN(CN(C3)C(=O)CCSC[C@H](NC(=O)CC[C@H](C(=O)O)N3CCN(CC(=O)O)CCN(CC(=O)O)CC3)C(=O)N3CCC[C@H]3C(=O)N[C@@H](Cc3cccc4ccccc34)C(=O)N[C@H](CC(=O)O)C(=O)N2)C(=O)CCSC[C@@H](C(N)=O)NC(=O)[C@H](Cc2c[nH]c3ccccc23)NC(=O)[C@@H]2C[C@@H](O)CN2C(=O)[C@@H]2CCCN2C(=O)[C@H]([C@@H](C)O)NC(=O)[C@H](CO)NC(=O)[C@H](Cc2c[nH]c3ccccc23)NC(=O)[C@H](CC(=O)O)NC(=O)[C@H](CCCCNC(=N)N)NC1=O [[^64Cu]Cu-3a, metal not drawn] (X1-CP[1Nal][dD]C[Nle][hArg]DWSTP[Hyp]WC-NH2; linker 1-5-15 via TATA) | Percent fast [%] [4]: 85.43 ±1.50%; body retention at 2 h p.i. [4]: 70%; kidney uptake (SUVmean) at 2 h p.i. [4]: 25; time of highest tumor uptake [4]: ≈ 6 min |
|  | -2.79 |  |  | 213 | 1.23 | CSCC[C@@H]1NC(=O)[C@@H]2CSCCC(=O)N3CN(CN(C3)C(=O)CCSC[C@H](NC(=O)CN3CCN(CC(=O)O)CCN(CC(=O)O)CCN(CC(=O)O)CC3)C(=O)N3CCC[C@H]3C(=O)N[C@@H](Cc3ccc4ccccc4c3)C(=O)N[C@H](CC(=O)O)C(=O)N2)C(=O)CCSC[C@@H](C(N)=O)NC(=O)[C@H](Cc2c[nH]c3ccccc23)NC(=O)[C@@H]2C[C@@H](O)CN2C(=O)[C@@H]2CCCN2C(=O)[C@H]([C@@H](C)O)NC(=O)[C@H](CO)NC(=O)[C@H](Cc2c[nH]c3ccccc23)NC(=O)[C@H](CC(=O)O)NC(=O)[C@H](CCCNC(=N)N)NC1=O [8c] ({DOTA}-CP[2Nal][dD]CMRDWSTP[Hyp]WC-NH2; linker 1-5-15 via TATA) | factor less potent than DOTA conjugate 1f ([5]; FA K d ratio): 21 fold; kon ([6]; HBS-P+ pH 7.4, 25 °C, read-out: k on (SPR, *10^6 M^–1 s^–1)): 20000 M⁻¹ s⁻¹; koff ([6]; pH 7.4, HBS-P+ pH 7.4, 25 °C, read-out: k off (SPR, *10^–3 s^–1)): 0.00239 s⁻¹; Kd (HT-1376 cells; 60 min, PBS wash, apparent): 103 nM; B max (fmol/mg) (HT-1376 cells): 799 (±136) fmol/mg |
|  | -2.51 |  |  | 34 | 1.07 | C[C@@H](O)[C@@H]1NC(=O)[C@H](CO)NC(=O)[C@H](Cc2c[nH]c3ccccc23)NC(=O)[C@H](CC(=O)O)NC(=O)[C@H](CCCCNC(=N)N)NC(=O)[C@H](CC[S+](C)[O-])NC(=O)[C@@H]2CSCCC(=O)N3CN(CN(C3)C(=O)CCSC[C@H](NC(=O)CC[C@H](C(=O)O)N3CCN(CC(=O)O)CCN(CC(=O)O)CC3)C(=O)N3CCC[C@H]3C(=O)N[C@@H](Cc3cccc4ccccc34)C(=O)N[C@H](CC(=O)O)C(=O)N2)C(=O)CCSC[C@@H](C(N)=O)NC(=O)[C@H](Cc2c[nH]c3ccccc23)NC(=O)[C@@H]2C[C@@H](O)CN2C(=O)[C@@H]2CCCN2C1=O (some centres unmarked) [compound 2] (X1-CP[1Nal][dD]C[Met(O)][hArg]DWSTP[Hyp]WC-NH2; linker 1-5-15 via TATA) |  |
| 218 | -2.74 | 1.21 ± 0.21 | 32.5 ± 3.08 |  |  | CSCC[C@@H]1NC(=O)[C@@H]2CSCCC(=O)N3CN(CN(C3)C(=O)CCSC[C@H](NC(=O)CC[C@H](C(=O)O)N3CCN(CC(=O)O)CCN(CC(=O)O)CC3)C(=O)N3CCC[C@H]3C(=O)N[C@@H](Cc3cccc4ccccc34)C(=O)N[C@H](CC(=O)O)C(=O)N2)C(=O)CCSC[C@@H](C(N)=O)NC(=O)[C@H](Cc2c[nH]c3ccccc23)NC(=O)[C@@H]2C[C@@H](O)CN2C(=O)[C@@H]2CCCN2C(=O)[C@H]([C@@H](C)O)NC(=O)[C@H](CO)NC(=O)[C@H](Cc2c[nH]c3ccccc23)NC(=O)[C@H](CC(=O)O)NC(=O)[C@H](CCCCNC(=N)N)NC1=O [[^64Cu]Cu-1e, metal not drawn] |  |
